Here are results for 80 compounds from the METLIN SMRT retention time set (Domingo-Almenara et al. 2019).

A short description of this series: gradient 5% acetonitrile 3 min, to 50% in 2 min, to 85% in 15 min, held 3 min, 100 µL/min. The note with it: column: Zorbax Extend-C18 2.1 x 50 mm; eluents: water / acetonitrile, 0.1% formic acid. Put shortly:
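A Zorbax Extend-C18 column (2.1 × 50 mm, 1.8 μm) run at 100 μL/min with water and acetonitrile, both containing 0.1% formic acid, separated mixtures of ~100 pure standards. The HPLC was coupled to a quadrupole time-of-flight mass spectrometer operated in positive and negative ionization mode, with dead and dwell volumes of 40 μL and 900 μL. Each retention time was taken from a computationally picked adduct peak that was then manually inspected.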
Take `O=C(NC1CCCCC1)c1csc(N2CCN(c3ccccc3)CC2)n1`: the RP-LC retention time was found to be 1160 s. In turn, `COc1ccc(N2CCN(C(=O)Cn3ccc4ccc(-c5nnc(C)o5)cc43)CC2)cc1` returned an RP-LC retention time of 753 s. As to `O=C(Cn1nc2c(c1NC(=O)c1cnccn1)CSC2)NCc1ccco1`, the RP-LC retention time was determined as 664 s. The figure for `CCc1ccc(-n2c(CN3CCN(C(=O)NCC4CCCO4)CC3)nc3cccnc32)cc1` (stereo not given) is 636 s; for `COc1cccc(S(=O)(=O)N2CCC(c3noc(-c4cnccn4)n3)C2)c1` (stereo not given) it is 788 s; for `CCOC(=O)C1CCN(C(=O)C2CCCN(c3ncnc4c3nc3n4CCCCC3)C2)CC1` (stereo not given) it is 726 s. Compound `CCNC(=O)CC1=C2CCCCC2N(C)C1=O` (stereo not given) came in with an RP-LC retention time of 607 s. As for `Cc1ccc(NC(=O)N(C)CC2CCOCC2)cc1F`, the RP-LC retention time was determined as 748 s. The same measure for `CCOC(=O)c1ccc(Nc2c(-c3ccccc3)nc3cnccn23)cc1`: 849 s; for `COc1ccc(N2CCN(C(=O)c3cn(-c4ccc(NC(C)=O)cn4)cn3)CC2)cc1`: 617 s; for `CCOC(=O)c1nn(-c2ccc(F)cc2)c(=O)cc1NCC1CCCO1` (stereo not given): 766 s. For `CCCNc1cc(N2CCC(CCC(=O)NCc3ccc(N4CCOCC4)cc3)CC2)ncn1`, the RP-LC retention time amounted to 631 s. The same measure for `Cc1cccc(C2=NC3(CCN(C(=O)Nc4ccc5c(c4)OCO5)CC3)NC2=O)c1`: 790 s; for `COc1cc(NC(=O)C(=O)c2cccn2C)cc(OC)c1`: 976 s; for `CCCN1C(=O)c2cc(S(=O)(=O)Nc3ccc(C)cc3F)ccc2Oc2cccnc21`: 1080 s. In turn, `CCC(C)NC(=O)c1c2c(cn(-c3ccc(C)cc3)c1=O)C(=O)CC(C)(C)C2` (stereo not given) had an RP-LC retention time of 1000 s. For `CCOC(=O)c1cc(C2CC2)nc2c1c(=O)n(Cc1cccc(Cl)c1)c(=O)n2C`, the RP-LC retention time is 1200 s. For `Cc1nc2cc(-c3noc(-c4ccc(C#N)cc4)n3)ccc2o1`, the RP-LC retention time turned out to be 1010 s.

Turning to `COC(=O)[C@H](Cc1cccc(C(=N)N)c1)[C@@H](C)NC(=O)c1ccc(-c2cc[n+]([O-])cc2)cc1`, the RP-LC retention time stood at 610 s. `CCc1c(C2CCN(C(=O)Nc3ccc(F)c(Cl)c3)CC2)noc1N` had an RP-LC retention time of 926 s. The same measure for `CCN1c2ccc(C)cc2C(=O)NC12CCN(C(=O)c1ccc(OC)c(OC)c1)CC2`: 744 s; for `Cc1nc2c(c(=O)n1CC(=O)NCCC1=CCCCC1)CCN(Cc1ccccc1)C2`: 666 s; for `Cc1ccc(NC(=O)N2CCC(n3cnnc3C3CC3)C2)cc1` (stereo not given): 635 s. Compound `COc1cn(CC(=O)NCc2ccc3c(c2)OCO3)c(CSc2ccccc2)cc1=O` had an RP-LC retention time of 618 s. The same measure for `O=C1[C@H]2CN(Cc3ccccc3Cl)C[C@H]2C(=O)N1Cc1ccc2c(c1)OCO2`: 930 s.

In the case of `Cc1ccc(-c2nnc(Cc3nc(-c4cccc(F)c4)no3)o2)cc1F`, the RP-LC retention time is 1110 s. `Cc1nc(OC(C)C)cc(N2CCN(C(=O)CCc3ccccc3)CC2)n1`: the RP-LC retention time came to 617 s. The same measure for `Cn1cc(C2=CCN(S(=O)(=O)c3cccc4cccnc34)CC2)c2cccnc21`: 889 s; for `COCC1(F)CCN(Cc2c(-c3cc(C)ccc3C)nc3cc(C)ccn23)CC1`: 636 s. Regarding `COc1ccccc1CNC(=O)Cn1ccc2ccc(N3CCOCC3)nc21`, the RP-LC retention time was 858 s.

`O=C(Cn1cccc1-c1nc(-c2ccccc2)no1)N1CCc2ccccc21`: the RP-LC retention time was 1110 s. For the compound `CN1CCC(N2CCN(S(=O)(=O)c3ccccc3Cl)CC2)C1=O` (stereo not given), the RP-LC retention time is 570 s. As for `O=C(Nc1ccc(F)c(F)c1)C1CCN(C(=O)C2Sc3ccccc3NC2=O)CC1` (stereo not given), the RP-LC retention time is 810 s. The figure for `COCc1nnc2n1CCC(NC(=O)c1ccoc1)CC2` (stereo not given) is 561 s; for `CCn1cc(CCNC(=O)Nc2ccc3c(c2)OCCO3)c2cccnc21` it is 661 s; for `Cc1noc(-c2ccnc(-n3cnc(C(=O)NCCC(C)C)c3)c2)n1` it is 849 s. Regarding `COC(=O)C1=C(CN2CCSCC2)NC(=O)NC1c1ccccc1Cl` (stereo not given), the RP-LC retention time worked out at 621 s. The same measure for `Cc1ccc(NC(=O)Nc2nc(CC(=O)Nc3ccc(F)c(F)c3)cs2)cc1`: 862 s; for `COc1ccc(-c2cc(C(=O)Nc3ccc(F)c(F)c3)sn2)cc1`: 1180 s.

Take `O=C(Cc1cccs1)Nc1nnc(SCC(=O)N2CCCc3ccccc32)s1`: the RP-LC retention time was determined as 805 s. `CN(C)C(=O)CC1CCOC2(CCN(C(=O)CCn3cnnn3)CC2)C1` (stereo not given): the RP-LC retention time was 604 s.

Turning to `COc1ccccc1-c1noc(C2CCCN2C(=O)Nc2cccc(Br)c2)n1` (stereo not given), the RP-LC retention time was 944 s. Compound `CCN(CC)CCNC(=O)C1CCCN(c2ccc(Sc3ccc(Br)cc3)nn2)C1` (stereo not given) had an RP-LC retention time of 664 s. Compound `Cc1noc(C)c1CCC(=O)N1CCC2(CC1)CC(CCOCC1CC1)CCO2` (stereo not given) came in with an RP-LC retention time of 831 s. In turn, `COc1ccc(NS(=O)(=O)c2cc3n(c2)CCN(C)C3=O)cc1Cl` registered an RP-LC retention time of 696 s. `COc1ccc(NC(=O)N2CCC(n3c(C(F)(F)F)nc4cccnc43)CC2)c(OC)c1` came in with an RP-LC retention time of 768 s. With `CN1c2cc(Cl)ccc2C(=O)NC12CCN(C(=O)NCc1cccc(F)c1)CC2`, the RP-LC retention time stood at 1010 s. In turn, `CCN(CC)C(=O)c1c2c(nc3ccccc13)CCCC2` displayed an RP-LC retention time of 605 s. The same measure for `CCN(CC)CCCNC(=O)c1ccc2c(c1)N(C)C(=O)C1CCCCN21` (stereo not given): 608 s; for `COc1cc(NS(=O)(=O)c2cc3n(c2)CCN(C)C3=O)cc(OC)c1`: 671 s; for `Cc1ccccc1Nc1c(-c2cc(Br)ccc2F)nc2ccccn12`: 808 s. In the case of `Cn1cnc(S(=O)(=O)N2CCCCC2c2nc(-c3ccncc3)n[nH]2)c1` (stereo not given), the RP-LC retention time was determined as 646 s. For the compound `Cc1ccc2oc(-c3noc(C(=O)NCCC4=CCCCC4)n3)c(C)c2c1`, the RP-LC retention time was 1400 s. In turn, `Clc1ccc(-c2csc(NCc3ccccc3)n2)cc1` displayed an RP-LC retention time of 1170 s. The compound `COC(=O)c1ccc2c(=O)n(CCc3ccccc3)c(N3CCSC3)nc2c1` showed an RP-LC retention time of 1110 s. For the compound `COc1ccccc1-c1nc(-c2ccc3c(c2)nnn3CCN(C)C)no1`, the RP-LC retention time came out at 644 s. With `CCn1nccc1-c1cccc(-c2noc(-c3cnccn3)n2)c1`, the RP-LC retention time came to 883 s. With `Cn1c(N2CCCC(C(=O)N3CCN(c4ccccc4F)CC3)C2)cc(=O)n(C)c1=O` (stereo not given), the RP-LC retention time stood at 765 s.

Consider `Cn1c(=O)c2ccn(CC(=O)N3CCN(c4ccccn4)CC3)c2n(C)c1=O`, for which the RP-LC retention time came to 546 s. `Cc1ccc(C(=O)N2CC(Cn3c(C)cnc3C3CCOCC3)C2)s1` registered an RP-LC retention time of 600 s.

Turning to `CCOc1ccc(NC(=O)c2cn(-c3cc(N4CCCC(C)C4)ncn3)cn2)cc1` (stereo not given), the RP-LC retention time was determined as 1130 s. `CCc1nn(C)c(=O)c2cc(S(=O)(=O)NCc3ccccc3Cl)cn12`: the RP-LC retention time stood at 893 s. The compound `CCn1cnc(S(=O)(=O)N2CCCC(C(=O)NCc3cccc(C)c3)C2)c1` (stereo not given) returned an RP-LC retention time of 747 s. For the compound `CCN(CC)S(=O)(=O)c1ccc2c(c1)CC(C(=O)NCCC(C)C)N2C(C)=O` (stereo not given), the RP-LC retention time was 848 s. Consider `Cc1cccc(NC(=O)Nc2cnn(-c3ncncc3N3CCC(C)CC3)c2)c1`, for which the RP-LC retention time was 761 s. `Cc1cc(C)n(CCNC(=O)c2ccc(N3CCOCC3)nn2)n1` gave an RP-LC retention time of 572 s. In the case of `CN(C)CCNC(=O)CCc1cc2ccccc2[nH]c1=O`, the RP-LC retention time was found to be 569 s. The figure for `CCn1cnc(S(=O)(=O)N2CCCC(C(=O)NCCc3ccccc3)C2)c1` (stereo not given) is 702 s.

Compound `COc1ccc(-c2cc(C(=O)N(C)C3CCN(C)CC3)nn2C2CCS(=O)(=O)C2)cc1` (stereo not given) yielded an RP-LC retention time of 600 s.

Take `CCC(C)NC(=O)Cn1c(=O)c(S(=O)(=O)c2ccccc2)cc2cc(C)ccc21` (stereo not given): the RP-LC retention time was determined as 879 s. `CSc1ccc(-c2nc3cc(C)ccn3c2Nc2ccc(Cl)cc2)cc1`: the RP-LC retention time is 840 s. For the compound `CCOC(=O)N1CCc2nc(NC(=O)c3ccc([N+](=O)[O-])s3)sc2C1`, the RP-LC retention time turned out to be 792 s. Regarding `O=C(c1csc(-c2ccc(N3CCCCC3)nc2)n1)N1CCN(c2ccccn2)CC1`, the RP-LC retention time was found to be 600 s. Compound `O=C(Nc1ccc(N2CCOCC2)cc1)C1CCCN(c2nccnc2Sc2ccccc2)C1` (stereo not given) had an RP-LC retention time of 945 s. `O=C(CC1CCN(C(=O)NCCc2ccccc2)CC1)N1CCCCC1` gave an RP-LC retention time of 759 s. The figure for `Cc1ccc2nc(C(=O)NCc3ccc(Cl)cc3)cn2c1` is 718 s. The same measure for `CN(Cc1ccccc1)C(=O)CC(=O)Nc1ccc2nc3n(c(=O)c2c1)CCCCC3`: 702 s; for `CCCNC(=O)C1CCN(c2nc3ccc(-c4cncnc4)nc3s2)CC1`: 719 s; for `CC(C)N1C(=O)C(C)(C(=O)Nc2ccc(F)cc2F)Oc2cccnc21` (stereo not given): 989 s.

In turn, `COc1cccc(CNC(=O)NCCC2CCN(S(=O)(=O)c3ccc(F)cc3)CC2)c1` displayed an RP-LC retention time of 842 s.
